These results are taken from paper PMC9032693, “Biological Evaluation of New Thienopyridinium and Thienopyrimidinium Derivatives as Human Choline Kinase Inhibitors” (Pharmaceutics, 2022).

One experiment deals with T1, CKα1 (Homo sapiens, UniProt P35790).
T1 construct: an N-terminally His-tagged truncated form of CKα1 (Δ75–457) was cloned into a pET-28a vector; His tag (N); made in house; host or cells: E. coli BL21 (DE3) Star
The experiment in a line: Choline kinase assay ([methyl-14C]choline into PCho, purified enzyme). In kind it is biochemical. To be noted: for IC50: concentration required to inhibit CKα1 enzyme by 50%; for % Inhibition at 10 µM: purified CKα1, inhibitor 10 µM; for % Inhibition at 10 µM / % Inhibition at 30 µM: end-point assay; for % Inhibition at 30 µM: purified CKα1, inhibitor 30 µM. How it is done:
The protein was produced and purified as previously described. Briefly, an N-terminally His-tagged truncated form of CKα1 (Δ75–457) was cloned into a pET-28a vector and expressed at 37 °C in E. coli BL21 (DE3) Star cells using 1 mM isopropyl β-D-1-thiogalactopyranoside (IPTG). After centrifugation, the cellular pellet was resuspended in 50 mM Tris-HCl pH 7.5, 500 mM NaCl, 0.2 mM phenylmethylsulphonyl fluoride (PMSF), DNase, and 0.5 mM β-mercaptoethanol, sonicated and subjected to a two-step purification procedure to isolate the target enzyme. […] Protein elution was completed using buffer A + 400 mM imidazole. A second size-exclusion chromatography step was then carried out to achieve complete purity. To this end, we used a HiPrep 26/60 Sephacryl 100 HR column (GE Healthcare, Little Chalfont, Buckinghamshire, UK) and a 20 mM Tris/HCl pH 7.5, 150 mM NaCl running buffer.
To study the effect of the compounds on CKα, an in vitro enzymatic assay was performed using the purified enzyme as previously reported in [19, 28, 29]. Briefly, the incorporation of ^14C from [methyl-^14C]choline into PCho in either the absence (control) or presence of different inhibitors at varying concentrations was used to determine the CK activity. The reaction mixture included 20 ng of purified CKα1, 10 mM ATP, 10 mM MgCl2, 100 mM Tris-HCl pH 8.5, and increasing concentrations of compounds. The mixture was preincubated at 37 °C for 5 min. Then, [methyl-^14C]choline chloride (1 mM, 4500 dpm/nmol) was added and the reaction was left to proceed for 10 min at 37 °C. The assay was stopped by immersing the reaction tubes in boiling water. PCho was separated by Thin Layer Chromatography using methanol/0.6% NaCl/28% NH4OH in water (50:50:5, v/v/v) as solvent. The radioactivity associated into PCho was determined in a Beckman 6000-TA (Madrid, Spain) liquid scintillation counter. The 50% inhibitory concentrations (IC50 values) were determined from the % enzyme activity at different concentrations of synthetic inhibitors relative to the control by using a sigmoidal dose–response curve (ED50plus v1.0 software).

The subject of a further experiment is MDA-MB-231. Description: Antiproliferative activity, resazurin assay, 72 h. In kind it is cell-based, human. How it is done:
(§1) Human cervix carcinoma (HeLa), Non-small lung adenocarcinoma (A549), Colon adenocarcinoma (HT29), and human triple negative breast cancer (MDA-MB-231) were cultured in Dulbecco’s modified Eagle’s media (DMEM). B-acute lymphoblastic leukemia (RS4;11 and SEM), T-acute lymphoblastic leukemia (Jurkat), and human promyelocytic cells (HL-60), were cultured in RPMI-1640 medium. Both media were purchased from Gibco, Life Technologies (Milan, Italy) and supplemented with 10% Fetal Bovine Serum (FBS, Invitrogen, Milan, Italy,). Every six months, each cell line was checked for the presence of mycoplasma by RT-PCR.
(§2) Stock solutions (10 mM) of the different compounds were made in DMSO. Cancer cells were seeded in tissue-treated, flat bottom, 384-well plates (Corning) according to their optimal density, (A549 1000 cells/wells; MDA-MB-231, HeLa and HT-29 2000 cells/well and finally Jurkat, HL-60 SEM and RS4;11 20.000 cells/well) in 27 µL of complete medium per well.
(§3) The day after cell seeding and immediately before cell treatment, 10 mM stock solutions of the compounds were pre-diluted to a […] concentration in 250 µL of Hank’s in a 96-well plate (Corning). Subsequent 1:5 dilutions were carried out using a microlab STAR 96-CORE liquid handling system (Hamilton), a robotized liquid handling tool that was employed for all steps, from cell seeding to drug dilution and cell treatment to ensure high reproducibility while reducing time for large screening execution. This pre-dilution step was necessary to avoid DMSO-related cytotoxicity and compound precipitation in the cell culture medium. In every case, DMSO concentration never exceeded 0.1%.
(§4) Positive (Bortezomib 1 µM) and negative (0.1% DMSO) controls were included in all the screened plates to allow for monitoring the Z’ factor throughout the entire screening. Cells were treated with 3 µL of the previously made dilutions; thus, generating a 6-point 5-fold dose–response curve starting from 10 µM. Within a plate, each drug concentration was tested in duplicate in two independent experiments for each compound.
(§5) Treated cells were then placed inside the CO2 incubator for 72 h at 37 °C. Cell viability was assessed by resazurin assay, in which 3 µL of resazurin per well were added using the previously described automated platform. Plates were placed in the incubator at 37 °C for 2 h, and then the fluorescence of each plate was read using a Spark 10 M multimode microplate reader (Tecan Group Ltd., Mannedorf, Switzerland) with 535 nm excitation wavelength and 600 nm emission wavelength.
(In general: Resazurin is reduced to fluorescent resorufin, in cell work by metabolically active cells.)

Another experiment relates to HeLa. Description: Antiproliferative activity, resazurin assay, 72 h. Type of experiment: cell-based, human. How it is done: as §1, §2, §3, §4, §5
Another experiment concerns RS 4;11. Description: Antiproliferative activity, resazurin assay, 72 h. Type of experiment: cell-based, human. The method, then: as §1, §2, §3, §4, §5
The subject of the next experiment is A549. The experiment in a line: Antiproliferative activity, resazurin assay, 72 h. Type of experiment: cell-based, human. The method, then: as §1, §2, §3, §4, §5
For the next experiment, the system named is HL-60. Description: Antiproliferative activity, resazurin assay, 72 h. Type of experiment: cell-based, human. The method, then:
as §1, §2, §3, §4, §5

A further experiment relates to SEM cells. The experiment in a line: Antiproliferative activity, resazurin assay, 72 h. In kind it is cell-based, human. How it is done: as §1, §2, §3, §4, §5
The test system of a further experiment is HT29. The experiment in a line: Antiproliferative activity, resazurin assay, 72 h. Type of experiment: cell-based, human. How it is done: as §1, §2, §3, §4, §5
The test system of the next experiment is Jurkat. Description: Antiproliferative activity, resazurin assay, 72 h. Type of experiment: cell-based, human. The method, then:
as §1, §2, §3, §4, §5

Where two headings read alike, the source gives them in different places.

T1 sequence (P35790 75-457): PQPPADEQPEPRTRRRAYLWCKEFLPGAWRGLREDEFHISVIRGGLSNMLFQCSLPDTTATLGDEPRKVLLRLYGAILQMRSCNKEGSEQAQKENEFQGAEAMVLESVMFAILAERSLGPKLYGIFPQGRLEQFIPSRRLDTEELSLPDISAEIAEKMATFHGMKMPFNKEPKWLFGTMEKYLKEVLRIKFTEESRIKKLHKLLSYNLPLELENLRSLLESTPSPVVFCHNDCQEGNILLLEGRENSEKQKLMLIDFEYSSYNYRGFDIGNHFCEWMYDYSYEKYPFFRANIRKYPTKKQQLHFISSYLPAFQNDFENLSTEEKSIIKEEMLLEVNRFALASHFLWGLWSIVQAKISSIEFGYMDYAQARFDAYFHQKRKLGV

As usually defined, the IC50 is the concentration that inhibits the measured activity by half. A low value points to inhibition by little substance. Usually % Inhibition stands for the change of the read-out against control, counted positive when it falls. The term GI50 denotes the concentration giving 50% growth inhibition. In the case of `[Br-].[Br-].c1cc2c(s1)c(N1CCCC1)cc[n+]2Cc1ccc(CCCCc2ccc(C[n+]3ccc(N4CCCC4)c4sccc43)cc2)cc1` [Ff-1], inhibition on CKα1 was half-maximal at 1540 ± 170 nM (IC50). Besides, the “% Inhibition at 10 µM” value at CKα1 is recorded as 82.15%. Moreover, at CKα1, the “% Inhibition at 30 µM” value is recorded as 90.83%. The concentration for 50% growth inhibition (GI50) in the experiment with MDA-MB-231 amounted to 1230 ± 10 nM; in the experiment on HeLa, 1900 ± 10 nM; with RS 4;11, 7900 ± 1300 nM; in the experiment on A549, 970 ± 20 nM; in the experiment on HL-60, 790 ± 50 nM; in the experiment on SEM cells it was 3070 ± 300 nM. In addition, the GI50 turned out to be 3320 ± 30 nM with HT29 and 4130 ± 400 nM with Jurkat.

With `[Br-].[Br-].c1cc2c(s1)c(N1CCCC1)cc[n+]2Cc1ccc(OCCOc2ccc(C[n+]3ccc(N4CCCC4)c4sccc43)cc2)cc1` [Ff-2], the “% Inhibition at 10 µM” value at CKα1 is reported as 77.41%. Moreover, at CKα1, the “% Inhibition at 30 µM” value is on record as 82.77%. Further, the 50% growth inhibitory concentration (GI50) in the experiment with MDA-MB-231 is 1430 ± 200 nM; in the experiment on HeLa it was 3260 ± 400 nM; with RS 4;11, over 10000 nM; in the experiment with A549, 1060 ± 100 nM; in the experiment on HL-60, 2140 ± 100 nM; in the experiment on SEM cells it was over 10000 nM. For the same molecule, the GI50 in the experiment with HT29 and in the experiment with Jurkat was over 10000 nM each time.

On CKα1, `[Br-].[Br-].c1cc2c(N3CCCCC3)nc[n+](Cc3ccc(-c4ccc(C[n+]5cnc(N6CCCCC6)c6ccsc65)cc4)cc3)c2s1` [Fg-30] returned an IC50 of at least 5000 nM. For the same molecule, the “% Inhibition at 10 µM” value at CKα1 is given as 75.46%. The “% Inhibition at 30 µM” value on CKα1 amounted to 85.71%. Besides, the GI50 is 800 ± 20 nM with MDA-MB-231; 2890 ± 300 nM in the experiment with HeLa; over 10000 nM in the experiment on RS 4;11; 600 ± 20 nM with A549; over 10000 nM with SEM cells; 8320 ± 900 nM in the experiment with HT29. The GI50 in the experiment with Jurkat is over 10000 nM.

Turning to `CN(c1ccc(Cl)cc1)c1nc[n+](Cc2ccc(-c3ccc(C[n+]4cnc(N(C)c5ccc(Cl)cc5)c5ccsc54)cc3)cc2)c2sccc12` [Fp-8], the GI50 in the experiment on MDA-MB-231 was 830 ± 40 nM; in the experiment on HeLa, 1770 ± 100 nM; in the experiment on RS 4;11 it was 3380 ± 50 nM; with A549, 160 ± 10 nM; in the experiment on HL-60 it was 900 ± 80 nM; in the experiment with SEM cells, over 10000 nM. Also, the GI50 in the experiment with HT29 was 3930 ± 500 nM; in the experiment on Jurkat it was over 10000 nM.

`CN(C)c1cc[n+](Cc2ccc(CCCCc3ccc(C[n+]4ccc(N(C)C)cc4)cc3)cc2)cc1` [MN-48b, reference compound] returned an IC50 at CKα1 of 780 ± 30 nM. Besides, the GI50 in the experiment on MDA-MB-231 is 310 ± 120 nM; with HeLa it was 1900 ± 100 nM; in the experiment on RS 4;11, 1000 ± 300 nM; in the experiment on A549 it was 540 ± 200 nM; in the experiment on HL-60, 320 ± 30 nM; in the experiment with HT29, 1900 ± 400 nM. The same molecule displayed a 50% growth inhibitory concentration (GI50) with Jurkat of 350 ± 100 nM.

As for `C/[N+](c1ccc(Cl)cc1)=c1\ccn(Cc2ccc(-c3ccc(Cn4cc/c(=[N+](/C)c5ccc(Cl)cc5)c5ccccc54)cc3)cc2)c2ccccc12` [RSM-932A, reference compound], the concentration for 50% growth inhibition (GI50) in the experiment on MDA-MB-231 (Homo sapiens, MDA-MB-231) amounted to 170 ± 50 nM; with HeLa (Homo sapiens, HeLa), 830 ± 100 nM; with RS 4;11 (Homo sapiens, RS4-11), 170 ± 40 nM; in the experiment on A549 (Homo sapiens, A549), 450 ± 90 nM; in the experiment on HL-60 (Homo sapiens, HL-60), 930 ± 100 nM; with HT29 (Homo sapiens, HT-29), 400 ± 200 nM. It took 410 ± 100 nM to inhibit growth with Jurkat (Homo sapiens, Jurkat) by half (GI50).
